# Experiments:
# SMARCA2-HiBiT = molecular target: T1, SMARCA2-HiBiT (Homo sapiens, UniProt P51531); experiment: SMARCA2 HiBiT degradation assay in HeLa cells; assay type: cell-based; details: 18 hours incubation; for DC50: read-out: HeLa_HiBit-SM2 DC50; for Dmax: HeLa, read-out: HeLa-HiBit-SM2 Dmax (%)
# T1 construct: SMARCA2-HiBiT knock-in Hela monoclonal cell (CS302366); host or cells: HeLa monoclonal knock-in line (CRISPR HiBiT knock-in at the endogenous locus, heterozygous)
# How it was run: (§1)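 HeLa monoclonal lines with heterozygous HiBiT knock-in were seeded at 2500 cells/well in EMEM with 10% FBS and treated with compound for 18 h at 37 °C. Remaining tagged protein was measured by Nano-Glo HiBiT lytic luminescence after 30–60 min at RT, and values came from curve fitting.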
# SMARCA4-HiBiT = molecular target: T2, SMARCA4-HiBiT (Homo sapiens, UniProt P51532); experiment: SMARCA4 HiBiT degradation assay in HeLa cells; assay type: cell-based; details: 18 hours incubation; for DC50: read-out: HeLa-HiBit-SM4 DC50; for Dmax: HeLa, read-out: HeLa-HiBit-SM4 Dmax (%)
# T2 construct: SMARCA4-HiBiT knock-in Hela monoclonal cell (CS3023226); host or cells: HeLa monoclonal knock-in line (CRISPR HiBiT knock-in at the endogenous locus, heterozygous)
# T2 sequence (P51532 whole entry): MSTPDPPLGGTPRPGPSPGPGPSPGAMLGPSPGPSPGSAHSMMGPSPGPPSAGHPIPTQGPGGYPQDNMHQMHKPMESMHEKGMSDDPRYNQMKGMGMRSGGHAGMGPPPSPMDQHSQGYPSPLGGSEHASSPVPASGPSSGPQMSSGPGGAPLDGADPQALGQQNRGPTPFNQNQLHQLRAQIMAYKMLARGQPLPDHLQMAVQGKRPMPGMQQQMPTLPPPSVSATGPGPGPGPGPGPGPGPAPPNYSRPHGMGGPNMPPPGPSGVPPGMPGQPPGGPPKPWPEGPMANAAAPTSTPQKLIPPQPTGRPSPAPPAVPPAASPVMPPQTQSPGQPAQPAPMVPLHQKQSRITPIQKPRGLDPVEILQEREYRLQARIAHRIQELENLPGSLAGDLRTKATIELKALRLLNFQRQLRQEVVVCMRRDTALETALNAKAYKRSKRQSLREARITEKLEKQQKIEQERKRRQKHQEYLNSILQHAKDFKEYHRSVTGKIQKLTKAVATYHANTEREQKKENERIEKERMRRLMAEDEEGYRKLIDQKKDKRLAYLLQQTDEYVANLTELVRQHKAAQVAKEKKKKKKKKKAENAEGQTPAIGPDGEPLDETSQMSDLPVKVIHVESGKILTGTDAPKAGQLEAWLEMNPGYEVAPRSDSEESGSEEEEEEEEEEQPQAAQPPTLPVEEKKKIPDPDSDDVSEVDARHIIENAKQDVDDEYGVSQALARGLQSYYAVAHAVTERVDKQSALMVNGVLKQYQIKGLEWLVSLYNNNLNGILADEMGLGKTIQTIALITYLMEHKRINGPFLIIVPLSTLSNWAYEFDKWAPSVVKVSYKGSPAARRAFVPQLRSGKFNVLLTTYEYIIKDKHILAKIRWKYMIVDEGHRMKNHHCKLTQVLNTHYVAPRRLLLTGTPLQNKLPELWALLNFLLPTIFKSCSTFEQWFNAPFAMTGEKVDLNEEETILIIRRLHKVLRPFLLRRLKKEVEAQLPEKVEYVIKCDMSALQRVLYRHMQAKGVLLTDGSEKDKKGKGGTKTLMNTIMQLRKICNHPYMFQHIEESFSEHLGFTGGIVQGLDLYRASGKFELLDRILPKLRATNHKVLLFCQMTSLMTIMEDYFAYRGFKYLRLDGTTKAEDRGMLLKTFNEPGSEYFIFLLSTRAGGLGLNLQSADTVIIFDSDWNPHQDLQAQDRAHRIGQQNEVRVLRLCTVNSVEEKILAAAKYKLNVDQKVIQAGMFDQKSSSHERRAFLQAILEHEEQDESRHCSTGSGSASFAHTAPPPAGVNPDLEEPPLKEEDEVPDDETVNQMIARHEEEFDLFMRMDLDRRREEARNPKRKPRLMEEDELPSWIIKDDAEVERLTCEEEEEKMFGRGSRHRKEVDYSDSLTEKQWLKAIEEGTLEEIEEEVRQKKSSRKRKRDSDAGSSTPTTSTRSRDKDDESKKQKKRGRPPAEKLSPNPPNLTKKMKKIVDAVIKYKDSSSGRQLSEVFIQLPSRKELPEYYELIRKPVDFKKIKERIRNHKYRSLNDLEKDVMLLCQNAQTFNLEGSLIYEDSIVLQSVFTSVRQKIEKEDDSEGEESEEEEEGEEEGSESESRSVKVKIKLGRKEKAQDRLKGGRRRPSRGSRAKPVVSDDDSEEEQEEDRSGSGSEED
# How it was run: as §1
# T1 sequence (P51531 whole entry): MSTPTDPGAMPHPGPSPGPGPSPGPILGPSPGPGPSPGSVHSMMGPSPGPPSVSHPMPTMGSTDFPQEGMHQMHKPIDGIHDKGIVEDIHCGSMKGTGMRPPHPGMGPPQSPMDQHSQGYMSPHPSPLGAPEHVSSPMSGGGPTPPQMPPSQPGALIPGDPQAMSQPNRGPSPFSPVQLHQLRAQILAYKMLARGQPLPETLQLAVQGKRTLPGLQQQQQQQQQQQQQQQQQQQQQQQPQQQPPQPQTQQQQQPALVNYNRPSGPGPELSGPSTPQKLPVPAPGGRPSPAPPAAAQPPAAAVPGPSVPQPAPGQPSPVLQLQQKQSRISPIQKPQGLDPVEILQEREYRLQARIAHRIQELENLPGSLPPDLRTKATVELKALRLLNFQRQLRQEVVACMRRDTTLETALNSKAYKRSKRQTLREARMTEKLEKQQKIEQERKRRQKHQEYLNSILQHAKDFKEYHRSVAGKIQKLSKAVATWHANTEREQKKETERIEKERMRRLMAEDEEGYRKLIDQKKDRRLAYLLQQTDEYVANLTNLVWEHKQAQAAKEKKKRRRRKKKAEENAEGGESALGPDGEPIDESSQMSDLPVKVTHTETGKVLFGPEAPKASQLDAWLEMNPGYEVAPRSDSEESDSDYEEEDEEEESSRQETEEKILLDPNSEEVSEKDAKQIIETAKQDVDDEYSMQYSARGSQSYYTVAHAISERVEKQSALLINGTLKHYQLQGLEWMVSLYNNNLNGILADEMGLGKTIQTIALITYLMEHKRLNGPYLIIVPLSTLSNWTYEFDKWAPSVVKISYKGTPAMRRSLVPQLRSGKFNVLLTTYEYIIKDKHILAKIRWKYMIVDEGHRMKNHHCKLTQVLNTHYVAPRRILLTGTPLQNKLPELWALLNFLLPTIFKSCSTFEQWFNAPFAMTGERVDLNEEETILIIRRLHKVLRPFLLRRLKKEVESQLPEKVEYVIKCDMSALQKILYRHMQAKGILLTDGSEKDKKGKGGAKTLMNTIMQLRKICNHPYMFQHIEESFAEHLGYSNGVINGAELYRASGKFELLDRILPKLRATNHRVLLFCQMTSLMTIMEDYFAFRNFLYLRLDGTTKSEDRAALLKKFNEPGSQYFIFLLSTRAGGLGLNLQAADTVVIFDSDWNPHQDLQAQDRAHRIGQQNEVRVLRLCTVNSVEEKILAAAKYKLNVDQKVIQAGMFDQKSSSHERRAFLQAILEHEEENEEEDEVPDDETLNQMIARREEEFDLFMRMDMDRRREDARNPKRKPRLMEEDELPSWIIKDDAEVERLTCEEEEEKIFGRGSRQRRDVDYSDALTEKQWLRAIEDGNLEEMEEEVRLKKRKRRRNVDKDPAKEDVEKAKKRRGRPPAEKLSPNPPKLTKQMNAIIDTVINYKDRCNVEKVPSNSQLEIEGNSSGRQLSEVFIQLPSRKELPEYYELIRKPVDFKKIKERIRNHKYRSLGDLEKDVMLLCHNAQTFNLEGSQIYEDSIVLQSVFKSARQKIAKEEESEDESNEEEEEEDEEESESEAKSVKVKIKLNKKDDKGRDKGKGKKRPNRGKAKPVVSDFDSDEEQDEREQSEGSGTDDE
DC50 (SMARCA2-HiBiT) [nM],Dmax (SMARCA2-HiBiT) [%],DC50 (SMARCA4-HiBiT) [nM],Dmax (SMARCA4-HiBiT) [%],SMILES
< 10,50 to 75,< 10,≤ 50,"O=C1CCC(N2C(=O)c3ccc(N4CCC(CN5C[C@@H]6[C@H](C5)[C@H]6CN5CCN6c7cc(-c8ccccc8O)nnc7NC[C@H]6C5)[C@@H](F)C4)cc3C2=O)C(=O)N1 (stereo in doubt) [Example 192, 2-(2,6-dioxopiperidin-3-yl)-5-[(3R,4R)-3-fluoro-4-[[(1S,5R)-6-[[(10S)-4-(2-hydroxyphenyl)-1,5,6,8,12-pentazatricyclo[8.4.0.02,7]tetradeca-2(7),3,5-trien-12-yl]methyl]-3-azabicyclo[3.1.0]hexan-3-yl]methyl]piperidin-1-yl]isoindole-1,3-dione]"
< 10,> 85,< 10,75 to 85,"O=C1CCC(N2C(=O)c3ccc(N4CCC(CN5CC6COCC(C5)C6CN5CCN6c7cc(-c8ccccc8O)nnc7NC[C@H]6C5)CC4)cc3C2=O)C(=O)N1 (stereo partly drawn) [Example 132, 2-(2,6-dioxopiperidin-3-yl)-5-(4-((9-(((S)-2-(2-hydroxyphenyl)-5,6,6a,7,9,10-hexahydro-8H-pyrazino[1′,2′:4,5]pyrazino[2,3-c]pyridazin-8-yl)methyl)-3-oxa-7-azabicyclo[3.3.1]nonan-7-yl)methyl)piperidin-1-yl)isoindoline-1,3-dione]"
< 10,> 85,< 10,75 to 85,"O=C1CCC(N2C(=O)c3ccc(N4CC5(CC(N6C[C@@H]7[C@@H](CN8CCN9c%10cc(-c%11ccccc%11O)nnc%10NC[C@H]9C8)[C@@H]7C6)C5)C4)cc3C2=O)C(=O)N1 (stereo partly drawn) [Example 259, 2-(2,6-dioxopiperidin-3-yl)-5-(6-((1R,5S,6s)-6-(((S)-2-(2-hydroxyphenyl)-5,6,6a,7,9,10-hexahydro-8H-pyrazino[1′,2′:4,5]pyrazino[2,3-c]pyridazin-8-yl)methyl)-3-azabicyclo[3.1,0]hexan-3-yl)-2-azaspiro[3.3]heptan-2-yl)isoindoline-1,3-dione]"
< 10,> 85,< 10,> 85,"O=C1CCC(N2C(=O)c3ccc(N4CCC(CN5CCC(N6CCN7c8cc(-c9ccccc9O)nnc8NC[C@H]7C6)CC5)CC4)cc3C2=O)C(=O)N1 (stereo partly drawn) [Example 30, 2-(2,6-dioxopiperidin-3-yl)-5-(4-((4-((S)-2-(2-hydroxyphenyl)-5,6,6a,7,9,10-hexahydro-8H-pyrazino[1′,2′:4,5]pyrazino[2,3-c]pyridazin-8-yl)piperidin-1-yl)methyl)piperidin-1-yl)isoindoline-1,3-dione]"
< 10,> 85,< 10,> 85,"O=C1CCC(N2C(=O)c3ccc(N4CC(CN5C[C@@H]6[C@H](C5)[C@H]6CN5CCN6c7cc(-c8ccccc8O)nnc7NC[C@H]6C5)C4)cc3C2=O)C(=O)N1 (stereo partly drawn) [Example 109, 2-(2,6-dioxopiperidin-3-yl)-5-(3-(((1R,5S,6r)-6-(((S)-2-(2-hydroxyphenyl)-5,6,6a,7,9,10-hexahydro-8H-pyrazino[1′,2′:4,5]pyrazino[2,3-c]pyridazin-8-yl)methyl)-3-azabicyclo[3.1.0]hexan-3-yl)methyl)azetidin-1-yl)isoindoline-1,3-dione]"
< 10,75 to 85,< 10,50 to 75,"O=C1CCC(N2C(=O)c3ccc(N4CCC(NC56CC(CN7CCN8c9cc(-c%10ccccc%10O)nnc9NC[C@H]8C7)(C5)C6)CC4)cc3C2=O)C(=O)N1 (stereo partly drawn) [Example 135, 2-(2,6-dioxopiperidin-3-yl)-5-(4-((3-(((S)-2-(2-hydroxyphenyl)-5,6,6a,7,9,10-hexahydro-8H-pyrazino[1′,2′:4,5]pyrazino[2,3-c]pyridazin-8-yl)methyl)bicyclo[1.1.1]pentan-1-yl)amino)piperidin-1-yl)isoindoline-1,3-dione]"
< 10,75 to 85,10 to 100,75 to 85,"CC1CC(C(=O)N2CCN3c4cc(-c5ccccc5O)nnc4NC[C@H]3C2)CCN1CC1CCN(c2ccc3c(c2)C(=O)N(C2CCC(=O)NC2=O)C3)CC1 (stereo partly drawn) [Example 265, 3-(6-(4-((4-((S)-2-(2-hydroxyphenyl)-6,6a,7,8,9,10-hexahydro-5H-pyrazino[1′,2′:4,5]pyrazino[2,3-c]pyridazine-8-carbonyl)-2-methylpiperidin-1-yl)methyl)piperidin-1-yl)-1-oxoisoindolin-2-yl)piperidine-2,6-dione]"
< 10,50 to 75,< 10,50 to 75,"O=C1CCC(N2C(=O)c3ccc(CN4CCC(CN5CCC(CN6CCN7c8cc(-c9ccccc9O)nnc8NC[C@H]7C6)CC5)CC4)cc3C2=O)C(=O)N1 (stereo partly drawn) [Example 187, 2-(2,6-dioxopiperidin-3-yl)-5-[[4-[[4-[[(10S)-4-(2-hydroxyphenyl)-1,5,6,8,12-pentazatricyclo[8.4.0.02,7]tetradeca-2,4,6-trien-12-yl]methyl]piperidin-1-yl]methyl]piperidin-1-yl]methyl]isoindole-1,3-dione]"
< 10,> 85,< 10,> 85,"O=C1CCC(N2Cc3ccc(N4CCC(CN5C[C@@H]6[C@H](C5)[C@H]6CN5CCN6c7cc(-c8ccccc8O)nnc7NC[C@H]6C5)CC4)cc3C2=O)C(=O)N1 (stereo partly drawn) [Example 232, 3-(6-(4-(((1R,5S,6r)-6-(((S)-2-(2-hydroxyphenyl)-5,6,6a,7,9,10-hexahydro-8H-pyrazino[1′,2′:4,5]pyrazino[2,3-c]pyridazin-8-yl)methyl)-3-azabicyclo[3.1.0]hexan-3-yl)methyl)piperidin-1-yl)-1-oxoisoindolin-2-yl)piperidine-2,6-dione]"
< 10,> 85,< 10,> 85,"O=C1CCC(N2C(=O)c3ccc(N4CCC(CN5CC6(CC(CN7CCN8c9cc(-c%10ccccc%10O)nnc9NC[C@H]8C7)C6)C5)CC4)cc3C2=O)C(=O)N1 (stereo partly drawn) [Example 41, 2-(2,6-dioxopiperidin-3-yl)-5-(4-((6-(((S)-2-(2-hydroxyphenyl)-5,6,6a,7,9,10-hexahydro-8H-pyrazino[1′,2′:4,5]pyrazino[2,3-c]pyridazin-8-yl)methyl)-2-azaspiro[3.3]heptan-2-yl)methyl)piperidin-1-yl)isoindoline-1,3-dione]"
< 10,75 to 85,< 10,50 to 75,"C[C@H]1CN(CC2CCN(c3ccc4c(c3)C(=O)N(C3CCC(=O)NC3=O)C4=O)CC2)CCN1C(=O)N1CCN2c3cc(-c4ccccc4O)nnc3NC[C@H]2C1 (stereo partly drawn) [Example 116, 2-(2,6-dioxopiperidin-3-yl)-5-(4-(((S)-4-((S)-2-(2-hydroxyphenyl)-6,6a,7,8,9,10-hexahydro-5H-pyrazino[1′,2′:4,5]pyrazino[2,3-c]pyridazine-8-carbonyl)-3-methyl-piperazin-1-yl)methyl)piperidin-1-yl)isoindoline-1,3-dione]"
< 10,50 to 75,< 10,50 to 75,"O=C1CCC(N2C(=O)c3cccc(N4CCC(OCCN5CCC(N6CCN7c8cc(-c9ccccc9O)nnc8NC[C@H]7C6)CC5)CC4)c3C2=O)C(=O)N1 (stereo partly drawn) [Example 67, 2-(2,6-dioxopiperidin-3-yl)-4-(4-(2-(4-((S)-2-(2-hydroxyphenyl)-5,6,6a,7,9,10-hexahydro-8H-pyrazino[1′,2′:4,5]pyrazino[2,3-c]pyridazin-8-yl)piperidin-1-yl)ethoxy)piperidin-1-yl)isoindoline-1,3-dione]"
< 10,50 to 75,10 to 100,≤ 50,"O=C1CCC(N2Cc3cc(OCCN4CCC(CN5CCN6c7cc(-c8ccccc8O)nnc7NC[C@H]6C5)CC4)ccc3C2=O)C(=O)N1 (stereo partly drawn) [Example 207, 3-(5-(2-(4-(((S)-2-(2-hydroxyphenyl)-5,6,6a,7,9,10-hexahydro-8H-pyrazino[1′,2′:4,5]pyrazino[2,3-c]pyridazin-8-yl)methyl)piperidin-1-yl)ethoxy)-1-oxoisoindolin-2-yl)piperidine-2,6-dione]"
10 to 100,50 to 75,10 to 100,75 to 85,"O=C1CCC(N2C(=O)c3ccc(N4CCC(F)(F)C(CN5C[C@@H]6[C@H](C5)[C@H]6CN5CCN6c7cc(-c8ccccc8O)nnc7NC[C@H]6C5)C4)cc3C2=O)C(=O)N1 (stereo partly drawn) [Example 55, 5-(4,4-difluoro-3-(((1R,5S,6r)-6-(((S)-2-(2-hydroxyphenyl)-5,6,6a,7,9,10-hexahydro-8H-pyrazino[1′,2′:4,5]pyrazino[2,3-c]pyridazin-8-yl)methyl)-3-azabicyclo[3.1.0]hexan-3-yl)methyl)piperidin-1-yl)-2-(2,6-dioxopiperidin-3-yl)isoindoline-1,3-dione]"
< 10,> 85,< 10,> 85,"O=C1CCC(N2Cc3ccc(N4CCC(CN5CCN(C(=O)N6CCN7c8cc(-c9ccccc9O)nnc8NC[C@H]7C6)C6(CC6)C5)CC4)cc3C2=O)C(=O)N1 (stereo partly drawn) [Example 262, 3-(6-(4-((4-((S)-2-(2-hydroxyphenyl)-6,6a,7,8,9,10-hexahydro-5H-pyrazino[1′,2′:4,5]pyrazino[2,3-c]pyridazine-8-carbonyl)-4,7-diazaspiro[2.5]octan-7-yl)methyl)piperidin-1-yl)-1-oxoisoindolin-2-yl)piperidine-2,6-dione]"
